The subject of this assay is HIV-1 protease (Human immunodeficiency virus 1). The experiment in a line: Inhibition of wild type HIV1 protease expressed in Escherichia coli by fluorometric assay.

Data on 10 molecules can be found in ChEMBL document CHEMBL1777731, “Design and synthesis of potent HIV-1 protease inhibitors incorporating hydroxyprolinamides as novel P2 ligands” (Bioorg Med Chem Lett, 2011).

As to `CC(C)CN(C[C@@H](O)[C@H](Cc1ccccc1)NC(=O)O[C@H]1CN[C@H](C(N)=O)C1)S(=O)(=O)c1ccc(N)cc1`, the IC50 stood at 0.0166 µM.
The figure for `CC(C)CN(C[C@@H](O)[C@H](Cc1ccccc1)NC(=O)O[C@H]1CN[C@H](C(=O)NC(C)(C)C)C1)S(=O)(=O)c1ccc(N)cc1` is 10.1 µM.
For the molecule `CC(C)CN(C[C@@H](O)[C@H](Cc1ccccc1)NC(=O)O[C@H]1CN[C@H](C(=O)Nc2ccccc2)C1)S(=O)(=O)c1ccc(N)cc1`, the midpoint of inhibition, the IC50, lay at 14.8 µM.
The figure for `COc1ccc(NC(=O)[C@@H]2C[C@@H](OC(=O)N[C@@H](Cc3ccccc3)[C@H](O)CN(CC(C)C)S(=O)(=O)c3ccc(N)cc3)CN2)cc1` is 0.0154 µM; for `Cc1ccc(NC(=O)[C@@H]2C[C@@H](OC(=O)N[C@@H](Cc3ccccc3)[C@H](O)CN(CC(C)C)S(=O)(=O)c3ccc(N)cc3)CN2)cc1` it is 0.139 µM.
`COc1ccccc1NC(=O)[C@@H]1C[C@@H](OC(=O)N[C@@H](Cc2ccccc2)[C@H](O)CN(CC(C)C)S(=O)(=O)c2ccc(N)cc2)CN1` yielded an IC50 of 13 µM.
The figure for `COc1cccc(NC(=O)[C@@H]2C[C@@H](OC(=O)N[C@@H](Cc3ccccc3)[C@H](O)CN(CC(C)C)S(=O)(=O)c3ccc(N)cc3)CN2)c1` is 15.2 µM.
The figure for `COc1ccc(OC)c(NC(=O)[C@@H]2C[C@@H](OC(=O)N[C@@H](Cc3ccccc3)[C@H](O)CN(CC(C)C)S(=O)(=O)c3ccc(N)cc3)CN2)c1` is 11.8 µM; for `COc1cc(NC(=O)[C@@H]2C[C@@H](OC(=O)N[C@@H](Cc3ccccc3)[C@H](O)CN(CC(C)C)S(=O)(=O)c3ccc(N)cc3)CN2)cc(OC)c1OC` it is 10.1 µM; for `CC(C)(C)NC(=O)[C@@H]1CN(Cc2cccnc2)CCN1C[C@@H](O)C[C@@H](Cc1ccccc1)C(=O)N[C@H]1c2ccccc2C[C@H]1O` it is less than 0.01 µM.

Usually IC50 stands for the point on the concentration scale where inhibition reaches its midpoint.
